Where two headings read alike, the source gives them in different places.
What was measured:
Spodoptera litura = assay: Insecticidal test against Spodoptera litura (treated artificial diet); type: in vivo; conditions: 144 h, active ingredient at 500 ppm, 2 ml in 13 g artificial diet, fourth-instar larvae, after 6 days
Method: A 200-fold dilution containing an active ingredient at 500 ppm, which had been prepared by diluting with water an emulsifiable concentrate of the test compound obtained according to Formulation Example 1, was absorbed at a volume of 2 ml in 13 g of an artificial diet for Spodoptera litura, which had been prepared in a polyethylene cup having a diameter of 11 cm. Ten fourth-instar larvae of Spodoptera litura were set free in the cup. After 6 days, the survival of larvae was examined to determine the mortality. The test was conducted in duplicate.

Tetranychus urticae Koch = assay: Test against Tetranychus urticae Koch (spray and soil drench on potted bean); type: in vivo; conditions: active ingredient at 500 ppm, 15 ml sprayed per pot plus 2 ml soil drench, after 8 days
Method: Ten female adults of Tetranychus urticae Koch per one leaf were allowed to parasitize to a potting bean at the primary leaf stage harvested for 7 days after seeding, and these pots were placed in a thermostated room at 25° C. After 6 days, a chemical solution containing an active ingredient at 500 ppm, which had been prepared by diluting with water an emulsifiable concentrate of the test compound obtained according to Formulation Example 1, was sprayed at a volume of 15 ml over each pot on a turntable. At the same time, 2 ml of the same solution was drenched in the soil. After 8 days, the degree of damage on the respective plants caused by Tetranychus urticae Koch was examined. The effects were determined according to the following criteria:
−: Damage is scarcely observed.
+: Damage is slightly observed.
++: Damage is observed at the same level as in the non-treated field.

Plutella xylostella = assay: Insecticidal test against Plutella xylostella (spray on potted cabbage); type: in vivo; conditions: 96 h
Method: A chemical solution containing an active ingredient at 50 ppm, which had been prepared by diluting an emulsifiable concentrate of the test compound obtained according to Formulation Example 1 with water containing spreading agent RINOU (Nihon Nouyaku K.K.) to a degree such that the spreading agent had been 1000-fold diluted, was sprayed at a volume 25 ml over each pot of a potting cabbage at the five leaf stage. The treated plants were air dried, on which ten third-instar larvae of Plutella xylostella were set free. After 4 days, the mortality was determined.

Heliothis virescens = assay: Insecticidal test against Heliothis virescens (treated artificial diet); type: in vivo; conditions: 144 h
Method: A dilution containing an active ingredient at 100 ppm, which had been prepared by diluting with water an emulsifiable concentrate of the test compound obtained according to Formulation Example 1, was incorporated at a volume of 0.2 ml in an artificial diet. A second-instar larva of H. virescens was given the diet and bred in a plastic vessel. Ten insects were used by each treatment. After 6 days, the mortality was determined.

[1] = active ingredient at 50 ppm, 25 ml sprayed per pot of cabbage, third-instar larvae, after 4 days, read-out: mortality
[2] = active ingredient at 100 ppm, 0.2 ml in artificial diet, second-instar larva, after 6 days, read-out: mortality

SMILES: ClC(Cl)=CCOc1cc(Cl)c(OCc2ccc(Cl)nc2)c(Cl)c1 [Compound 1, 3,5-Dichloro-4-(6-chloro-3-pyridylmethyloxy)-1-(3,3-dichloro-2-propenyloxy)benzene]
- mortality at 500 ppm (Spodoptera litura): ≥ 80%
- degree of damage on the plants caused by Tetranychus urticae Koch (Tetranychus urticae Koch): “−” or “+”

SMILES: ClC(Cl)=CCOc1cc(Cl)c(OCc2ccc(Cl)nc2Cl)c(Cl)c1 [Compound 2, 3,5-Dichloro-4-(2,6-dichloro-3-pyridylmethyloxy)-1-(3,3-dichloro-2-propenyloxy)benzene]
- mortality at 500 ppm (Spodoptera litura): ≥ 80%

SMILES: ClC(Cl)=CCOc1cc(Cl)c(OCc2ccccn2)c(Cl)c1 [Compound 5, 3,5-Dichloro-4-(2-pyridylmethyloxy)-1-(3,3-dichloro-2-propenyloxy)benzene]
- melting point: 48.2 °C

SMILES: ClC(Cl)=CCOc1cc(Cl)c(OCc2cccs2)c(Cl)c1 [Compound 6, 3,5-Dichloro-4-(2-thienylmethyloxy)-1-(3,3-dichloro-2-propenyloxy)benzene]
- melting point: 44.6 °C

SMILES: ClC(Cl)=CCOc1cc(Cl)c(OCc2ccco2)c(Cl)c1 [Compound 7, 3,5-Dichloro-4-(2-furanylmethyloxy)-1-(3,3-dichloro-2-propenyloxy)benzene]
- melting point: 46 °C
- degree of damage on the plants caused by Tetranychus urticae Koch (Tetranychus urticae Koch): “−” or “+”

SMILES: ClC(Cl)=CCOc1cc(Cl)c(OCc2cccnc2)c(Cl)c1 [Compound 8, 3,5-Dichloro-4-(3-pyridylmethyloxy)-1-(3,3-dichloro-2-propenyloxy)benzene]
- melting point: 105.9 °C

SMILES: ClC(Cl)=CCOc1cc(Cl)c(OCc2ccncc2)c(Cl)c1 [Compound 9, 3,5-Dichloro-4-(4-pyridylmethyloxy)-1-(3,3-dichloro-2-propenyloxy)benzene]
- melting point: 74 °C

SMILES: ClC(Cl)=CCOc1cc(Cl)c(OCCc2cccs2)c(Cl)c1 [Compound 10, 3,5-Dichloro-4-(2-(2-thienyl)ethoxy)-1-(3,3-dichloro-2-propenyloxy)benzene]
- degree of damage on the plants caused by Tetranychus urticae Koch (Tetranychus urticae Koch): “−” or “+”

SMILES: CN1C=CSC1CCOc1c(Cl)cc(OCC=C(Cl)Cl)cc1Cl (stereo not shown) [Compound 11, 3,5-Dichloro-4-(2-(3-methylthiazol-2-yl)ethoxy)-1-(3,3-dichloro-2-propenyloxy)benzene]
- melting point: 30.4 °C

SMILES: ClC(Cl)=CCOc1cc(Cl)c(OCCc2ccsc2)c(Cl)c1 [Compound 14, 3,5-Dichloro-4-(2-(3-thienyl)ethoxy)-1-(3,3-dichloro-2-propenyloxy)benzene]
- mortality at 500 ppm (Spodoptera litura): ≥ 80%

SMILES: ClC(Cl)=CCOc1cc(Cl)c(OCCCc2ccncc2)c(Cl)c1 [Compound 15, 3,5-Dichloro-4-(3-(4-pyridyl)propyloxy)-1-(3,3-dichloro-2-propenyloxy)benzene]
- degree of damage on the plants caused by Tetranychus urticae Koch (Tetranychus urticae Koch): “−” or “+”

SMILES: ClC(Cl)=CCOc1cc(Cl)c(OCCSc2ccncc2)c(Cl)c1 [Compound 19, 3,5-Dichloro-4-(2-(4-pyridylthio)ethoxy)-1-(3,3-dichloro-2-propenyloxy)benzene]
- melting point: 74.7 °C

SMILES: ClC(Cl)=CCOc1cc(Cl)c(OCCCc2cccnc2)c(Cl)c1 [Compound 20, 3,5-Dichloro-4-(3-(3-pyridyl)propyloxy)-1-(3,3-dichloro-2-propenyloxy)benzene]
- melting point: 48.3 °C

SMILES: O=C(OCCCOc1c(Cl)cc(OCC=C(Cl)Cl)cc1Cl)c1cnc2ccccc2c1 [Compound 28, 3-(2,6-Dichloro-4-(3,3-dichloro-2-propenyloxy)phenoxy)propyl 3-quinolinate]
- melting point: 92.3 °C

SMILES: ClC(Cl)=CCOc1cc(Cl)c(OCCCSc2ccccn2)c(Cl)c1 [Compound 30, 3,5-Dichloro-4-(3-(2-pyridylthio)propyloxy)-1-(3,3-dichloro-2-propenyloxy)benzene]
- degree of damage on the plants caused by Tetranychus urticae Koch (Tetranychus urticae Koch): “−” or “+”

SMILES: ClC(Cl)=CCOc1cc(Cl)c(OCCc2nc3ccccc3o2)c(Cl)c1 [Compound 32, 3,5-Dichloro-4-(2-(2-benzoxazolyl)ethoxy)-1-(3,3-dichloro-2-propenyloxy)benzene]
- melting point: 61.2 °C
- degree of damage on the plants caused by Tetranychus urticae Koch (Tetranychus urticae Koch): “−” or “+”

SMILES: CC(C)(COc1c(Cl)cc(OCC=C(Cl)Cl)cc1Cl)Oc1cccc(Cl)n1 [Compound 33, 3,5-Dichloro-4-(2-methyl-2-(2-(6-chloro)pyridyloxy)propyloxy)-1-(3,3-dichloro-2-propenyloxy)benzene]
- degree of damage on the plants caused by Tetranychus urticae Koch (Tetranychus urticae Koch): “−” or “+”

SMILES: FC(F)(F)c1ccc(OCCCOc2c(Cl)cc(OCC=C(Cl)Cl)cc2Cl)nc1 [Compound 36, 3,5-Dichloro-4-(3-(5-trifluoromethyl-2-pyridyloxy)propyloxy)-1-(3,3-dichloro-2-propenyloxy)benzene]
- mortality at 50 ppm (Plutella xylostella): ≥ 80%
- mortality at 100 ppm (Heliothis virescens): ≥ 80%

SMILES: FC(F)(F)c1cnc(OCCCOc2c(Cl)cc(OCC=C(Cl)Cl)cc2Cl)c(Cl)c1 [Compound 37, 3,5-Dichloro-4-(3-(3-chloro-5-trifluoromethyl-2-pyridyloxy)propyloxy)-1-(3,3-dichloro-2-propenyloxy)benzene]
- mortality at 50 ppm (Plutella xylostella; [1]): ≥ 80%

SMILES: ClC(Cl)=CCOc1cc(Cl)c(OCCCSc2nc3ccccc3[nH]2)c(Cl)c1 [Compound 39, 3,5-Dichloro-4-(3-(2-benzimidazolylthio)propyloxy)-1-(3,3-dichloro-2-propenyloxy)benzene]
- melting point: 120.7 °C

SMILES: FC(F)(F)c1ccc(OCCCCOc2c(Cl)cc(OCC=C(Cl)Cl)cc2Cl)nc1 [Compound 42, 3,5-Dichloro-4-(4-(5-trifluoromethyl-2-pyridyloxy)butyloxy)-1-(3,3-dichloro-2-propenyloxy)benzene]
- mortality at 50 ppm (Plutella xylostella; [1]): ≥ 80%
- mortality at 100 ppm (Heliothis virescens; [2]): ≥ 80%

SMILES: FC(F)(F)c1ccc(OCCCCCOc2c(Cl)cc(OCC=C(Cl)Cl)cc2Cl)nc1 [Compound 43, 3,5-Dichloro-4-(5-(5-trifluoromethyl-2-pyridyloxy)pentyloxy)-1-(3,3-dichloro-2-propenyloxy)benzene]
- mortality at 100 ppm (Heliothis virescens; [2]): ≥ 80%

SMILES: ClC(Cl)=CCOc1cc(Cl)c(NCCCOc2ccccn2)c(Cl)c1 [Compound 71, 3,5-Dichloro-4-(3-(2-pyridyloxy)propylamino)-1-(3,3-dichloro-2-propenyloxy)benzene]
- melting point: 76.2 °C

From patent US6589914B2, “Dihalopropene compounds, insecticidal/acaridcidal agents containing same, and intermediates for their production” (Sumitomo Chemical Company, Limited, priority 1994, dated 2003)
